Laboratory results published in US12122803B2, “Crystalline forms of a neuroactive steroid” (priority 2021, dated 2024).

Key:
Assay type in all cases: physicochemical
[1] = Competitive slurry experiments of Form S1 and Form S4; conditions: IPA, approximately equal amounts of Form S1 and Form S4
Experimental: To verify the transition temperature between Form S1 and Form S4 of Compound (1) calculated from the DSC data, competitive slurry experiments of Form S1 and Form S4 were performed.
In each experiment, slurries were generated using approximately equal amounts of Form S1 and Form S4. The forms were suspended in 0.3 mL of solvent in a 1.5 mL glass vial. […] The remaining solids were isolated via centrifugation (10000 rpm, 3 min) and analyzed using the XPRD analysis method described above.

[2] = Dynamic vapor sorption (DVS) analysis; conditions: for hygroscopicity by DVS / mass uptake by DVS / mass uptake by DVS expressed as equivalents of water: 25° C.; for hygroscopicity by DVS: up to 90% RH; for change of the XRPD pattern of the sample following the DVS analysis: after two sorption/desorption cycles at 25° C.; for mass uptake by DVS / mass uptake by DVS expressed as equivalents of water: at 90% RH
Experimental: Approximately 10-20 mg of sample was placed into a mesh vapor sorption balance pan and loaded into a DVS Intrinsic/Advantage dynamic vapor sorption balance by Surface Measurement Systems. The sample was subjected to a ramping profile from 40-90% relative humidity (RH) at 10% increments, maintaining the sample at each step until a stable weight had been achieved (dm/dt 0.004%, minimum step length 30 minutes, maximum step length 500 minutes) at 25° C. After completion of the sorption cycle, the sample was dried using the same procedure to 0% RH and then a second sorption cycle back to 40% RH. Two cycles were performed. The weight change during the sorption/desorption cycles were plotted, allowing for the hygroscopic nature of the sample to be determined. XRPD analysis was then carried out on any solid retained. The microbalance was calibrated monthly using a certified calibration weight and the relative humidity at 25° C. was calibrated against deliquescence point of LiCl, MgCl and NaCl. Data were not corrected for the initial water content of the sample, and data were shown according to the dry mass of the sample at 0% RH.

TGA analysis = conditions: up to 185° C., heating rate 10° C./min
Experimental: (§1) TGA data were collected using a TA Q500 TGA from TA Instruments, and DSC was conducted using a TA Q2000 DSC from TA Instruments. The TGA was calibrated with a nickel reference standard and the DSC was calibrated with an indium reference standard.

[3] = DSC analysis (form conversion under heating); conditions: TGA/DSC heating
Experimental: as §1

Row | SMILES | Results: solid form remaining after competitive slurry (XRPD) ([1]; 60 ° C., time point 1 hr) | Results: solid form remaining after competitive slurry (XRPD) ([1]; 70 ° C., time point 1 hr) | Results: solid form remaining after competitive slurry (XRPD) ([1]; 80 ° C., time point not given) | hygroscopicity by DVS [2] | change of the XRPD pattern of the sample following the DVS analysis [2] | mass uptake by DVS [2] | mass uptake by DVS expressed as equivalents of water [2] [eq. water] | weight loss on the TGA curve (TGA analysis) [%] | form conversion under heating conditions (thermal analyses) [3]
1 | COC[C@@]1(O)CC[C@H]2[C@@H](CC[C@@H]3[C@@H]2CC[C@]2(C)[C@@H](C(=O)Cn4nnc(C)n4)CC[C@@H]32)C1 [Form S1 and Form S4] | Form S1 | Form S1 | Form S4 | – | – | – | – | – | –
2 | COC[C@@]1(O)CC[C@H]2[C@@H](CC[C@@H]3[C@@H]2CC[C@]2(C)[C@@H](C(=O)Cn4nnc(C)n4)CC[C@@H]32)C1 [Form S1] | – | – | converted to Form S4 | substantially non-hygroscopic | No change | ca. 0.6 wt. % | 0.14 | 0.1 | converts to Form S4
3 | COC[C@@]1(O)CC[C@H]2[C@@H](CC[C@@H]3[C@@H]2CC[C@]2(C)[C@@H](C(=O)Cn4nnc(C)n4)CC[C@@H]32)C1 [Form S4] | converted to Form S1 | converted to Form S1 | – | non-hygroscopic | No change | ca. 0.12 wt. % | 0.02 | 0.1 | –
